Test results taken from patent US20230167071A1, “COMPOUNDS WITH ANTIMALARIAL ACTIVITY” (UNIVERSITY OF PUERTO RICO, priority 2019, published 2023).

Experiments:
mouse erythrocytes = experiment: Red blood cell lysis assay; format: cell-based; conditions: mouse erythrocytes 1% hematocrit, 24 hours, 0.2-100× fold EC50
Source text: Materials and methods. Random-bred Swiss albino CD-1 female mice (Charles River Laboratories, Wilmington, Mass., USA) from 6-8 weeks old were used for the study. All mice procedures were approved by the Institutional Animal Care and Use Committee under the protocol number 2480108 at the AAALAC accredited University of Puerto Rico-Medical Sciences Campus Animal Resources Center. The mice work was done in strict accordance with the “Guide for the Care and Use of Laboratory Animals” (National-Research-Council, Current Edition) and regulations of the PHS Policy on Humane Care and Use of Laboratory Animals. Mice were acclimated for 1 week before initiation of experiments.
Compounds were analyzed at 10 serial dilutions using fresh mouse erythrocytes at 1% hematocrit in Dulbecco's PBS (Gibco®) in V-bottom microplates (Corning® 96 well TC-treated microplate). The plates were incubated for 24 hours at 37° C. followed by centrifugation at 2,000 rpm for 5 min, and 50 μl of supernatant was transferred to a fresh flat-bottom microplate (BD Falcon®). The amount of hemoglobin release in the supernatant was determined using the QuantiChrom™ Hemoglobin Assay Kit (DIHB-250; BioAssay Systems) by measuring the absorbance at 400 nm following the manufacturer's instructions. Saponin at 100 μg/ml was used as a positive control for 100% cell lysis, blood (1% hematocrit) with Dulbecco's Phosphate-Buffered Saline (DPBS) as a negative control for no cell lysis, and DPBS as a blank. Compounds were tested in three independent experiments in triplicate each.

[1] = system: P. falciparum multidrug-resistant Dd2 clone B2; experiment: In vitro susceptibility of P. falciparum, flow cytometry after 72 hours; format: cell-based, Plasmodium falciparum; conditions: P. falciparum Dd2 clone B2, 72 hours; read-out: EC50 (parasite growth)
Experimental: After 72 hours, parasite growth was assessed using flow cytometry on an Accuri C6 cytometer with parasites stained with SYBR green I and MitoTracker Deep Red. Compound CB-27 was tested in six independent experiments with technical replicates. The percentage of parasite growth was curve fitted against log-transformed drug concentrations and the EC50 was calculated using GraphPad Prism 6 software.

PbGST = experiment: GST inhibition (CDNB/GSH) in crude P. berghei protein extract; format: biochemical, Plasmodium berghei; conditions: crude P. berghei protein extract, 0, 1, 10, and 50 μM
Experimental: Materials and methods. […] Parasite extracts were prepared and the pellets containing proteins were resuspended in buffer (3.5 mM MgCl2, 110 mM KCl, 40 mM NaCl, 20 mM HEPES, 6 mM EDTA, pH 7.4) with protease inhibitors (0.01 mg of leupeptin A, 0.001 mg of pepstatin A, 0.35 mg of PMSF). The parasite pellets were lysed by three freeze/thaw cycles (liquid nitrogen and 37° C. water bath) and protein content was determined using Bio-Rad DC Protein Assay. […] . The reaction was initiated by the addition of 1 mM GSH and the formation of S-(2,4-dinitrophenyl)glutathione was monitored spectrophotometrically at 340 nm (ε340 nm=0.0096 μM^−1cm^−1) using the SpectraMax M3 Microplate Reader (Molecular Devices).

human placenta GST = biological target: T1, human placenta GST (Homo sapiens, UniProt P09211); experiment: GST inhibition, human placenta GST; format: biochemical; conditions: human placenta GST, 0, 1, 10, and 50 μM
T1 construct: from tissue; host or cells: human placenta
T1 sequence (P09211 2-210 limits assumed): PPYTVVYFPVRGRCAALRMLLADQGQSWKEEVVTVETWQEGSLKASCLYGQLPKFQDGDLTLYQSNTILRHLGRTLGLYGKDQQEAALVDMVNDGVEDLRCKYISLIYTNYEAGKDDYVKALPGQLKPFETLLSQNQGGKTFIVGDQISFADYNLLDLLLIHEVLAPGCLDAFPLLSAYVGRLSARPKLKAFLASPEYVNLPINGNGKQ

EC50 [1] [nM]	inhibition of human GST activity (human placenta GST)	SMILES	hemolysis (lytic activity) (mouse erythrocytes)	inhibition of PbGST activity (PbGST)
		COc1cccc(C=NNC(=O)c2cc(-c3ccccc3)nc3ccccc23)c1O [CB-58]	did not hemolyze erythrocytes	
		COc1cccc(/C=N/NC(=O)c2nc(-c3ccccc3)cc(-c3ccccc3)n2)c1O [CB-41]	did not hemolyze erythrocytes	
		O=C(N/N=C/c1cc(Br)ccc1O)/C(=C/C=C/c1ccccc1)NC(=O)c1ccccc1 [CB-50]	did not hemolyze erythrocytes	
958	does not inhibit	O=C(NN=Cc1c(O)ccc2ccccc12)c1nc(-c2ccccc2)cc(-c2ccccc2)n1 [CB-27]	did not hemolyze erythrocytes	concentration-dependent inhibition
		O=C(Nc1cc(Cl)ccc1O)c1cc2nc(-c3ccccc3)cc(-c3ccccc3)n2n1 [CB-59]	did not hemolyze erythrocytes	
		O=C(N/N=C/c1c(O)ccc2ccccc12)c1cc([N+](=O)[O-])cc([N+](=O)[O-])c1 [CB-61]	did not hemolyze erythrocytes	
		O=C(N/N=C/c1ccccc1O)c1cc(-c2ccccc2)nc2ccccc12 [CB-53]	did not hemolyze erythrocytes	
